Data taken from the supplement of paper PMC11061612.

Assays:
[1] = compound: C[C@@H](Nc1cc(F)cc(F)c1)c1cc(C(=O)N(C)C)cc2c(=O)cc(N3CCOCC3)oc12 [AZD8186]
Procedure, shortened: (§1)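 Cancer cell lines were plated in 1536-well plates in 7.5 μl of DMEM/F12 or RPMI with 10% FBS and kept 24 hours at 37°C and 5% CO2 before 72 hours of dosing, with final DMSO typically 0.2%. CellTiter-Glo 2.0 luminescence measured viability, scaled between blank-well and DMSO-well means. Dose responses were fitted to a two-parameter logistic curve with a non-linear mixed effects model. This fit gives the single-agent IC50.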

[2] = compound: C=CCn1c(=O)c2cnc(Nc3ccc(N4CCN(C)CC4)cc3)nc2n1-c1cccc(C(C)(C)O)n1 [AZD1775]; conditions: max 3 µM
Procedure, shortened: as §1

[3] = compound: C[C@@H](c1ccc2nccn2c1)n1nnc2ncc(-c3cnn(C)c3)nc21 [Savolitinib]; conditions: max 1 µM
Procedure, shortened: as §1

[4] = compound: CC(=O)Nc1cccc(-n2c(=O)n(C3CC3)c(=O)c3c(Nc4ccc(I)cc4F)n(C)c(=O)c(C)c32)c1 [Trametinib]; conditions: max 1 µM
Procedure, shortened: as §1

[5] = compound: CCN(CCO)CCCOc1ccc2c(Nc3cc(CC(=O)Nc4cccc(F)c4)[nH]n3)ncnc2c1 [AZD2811]; conditions: max 1 µM
Procedure, shortened: as §1

[6] = compound: CS(=O)(=O)CCNCc1ccc(-c2ccc3ncnc(Nc4ccc(OCc5cccc(F)c5)c(Cl)c4)c3c2)o1 [Lapatinib]; conditions: max 10 µM
Procedure, shortened: as §1

[7] = compound: CC(=O)c1c(C)c2cnc(Nc3ccc(N4CCNCC4)cn3)nc2n(C2CCCC2)c1=O [Palbociclib]; conditions: max 10 µM
Procedure, shortened: as §1

[8] = compound: COc1cccc(OCCCN)c1-c1cc(Nc2cnc(C#N)cn2)n[nH]1 [Prexasertib]; conditions: max 1 µM
Procedure, shortened: as §1

[9] = compound: N#Cc1cnc(Nc2cc(NC[C@H]3CNCCO3)c(C(F)(F)F)cn2)cn1 [SRA737]; conditions: max 10 µM
Procedure, shortened: as §1

[10] = compound: O=C(c1cc(Cc2n[nH]c(=O)c3ccccc23)ccc1F)N1CCN(C(=O)C2CC2)CC1 [Olaparib]; conditions: max 10 µM
Procedure, shortened: as §1

[11] = compound: COc1cc2ncnc(Nc3ccc(F)c(Cl)c3)c2cc1OCCCN1CCOCC1 [Gefitinib]; conditions: max 10 µM
Procedure, shortened: as §1

[12] = compound: C1CC(C1)(C(=O)[O-])C(=O)[O-].N.N.[Pt+2] [Carboplatin]; conditions: max 10 µM
Procedure, shortened: as §1

[13] = compound: CCc1c2c(nc3ccc(O)cc13)-c1cc3c(c(=O)n1C2)COC(=O)[C@]3(O)CC [SN-38]; conditions: max 0.3 µM
Procedure, shortened: as §1

[14] = compound: CN(CC[C@H](CSC1=CC=CC=C1)NC2=C(C=C(C=C2)S(=O)(=O)NC(=O)C3=CC=C(C=C3)N4CCC(CC4)[C@H](C5=CC=CC=C5C6=CC=C(C=C6)Cl)O)S(=O)(=O)C(F)(F)F)CCO [AZD4320]; conditions: max 1 µM
Procedure, shortened: as §1

[15] = compound: CC1=C(C(=CC=C1)Cl)NC(=O)C2=CN=C(S2)NC3=CC(=NC(=N3)C)N4CCN(CC4)CCO [Dasatinib]; conditions: max 2 µM
Procedure, shortened: as §1

[16] = compound: O=c1[nH]cc(F)c(=O)[nH]1 [5-Fluorouracil]; conditions: max 20 µM
Procedure, shortened: as §1

[17] = compound: NC1(c2ccc(-c3nc4ccn5c(=O)[nH]nc5c4cc3-c3ccccc3)cc2)CCC1 [MK-2206]; conditions: max 10 µM
Procedure, shortened: as §1

[18] = compound: COc1cccc2c1C(=O)c1c(O)c3c(c(O)c1C2=O)C[C@@](O)(C(=O)CO)C[C@@H]3O[C@H]1C[C@H](N)[C@H](O)[C@H](C)O1 [Doxorubicin]; conditions: max 1 µM
Procedure, shortened: as §1

[19] = compound: Nc1ccn([C@@H]2O[C@H](CO)[C@@H](O)C2(F)F)c(=O)n1 [Gemcitabine]; conditions: max 0.3 µM
Procedure, shortened: as §1

[20] = compound: O=C(Nc1ccc2[nH]nc(-c3ccncc3)c2c1)[C@@H]1CCN(CC(=O)N2CCN(c3ccc(-c4ncccn4)cc3)CC2)C1; conditions: max 5 µM
Procedure, shortened: as §1

[21] = compound: Cc1c2c(nn1C)CSCc1cc(n(C)n1)CSc1cc(c3ccccc3c1)OCCCc1c(C(=O)O)n(C)c3c-2c(Cl)ccc13 [AZD5991]; conditions: max 1 µM
Procedure, shortened: as §1

[22] = compound: COc1nnc2ccc(N3CCC(c4ccc(OCCN5CCN(C)C(=O)[C@H]5C)cc4)CC3)nn12 [AZD5153]; conditions: max 1 µM
Procedure, shortened: as §1

[23] = compound: C1CN(CCC1(C(=O)N[C@@H](CCO)C2=CC=C(C=C2)Cl)N)C3=NC=NC4=C3C=CN4 [AZD5363]; conditions: max 10 µM
Procedure, shortened: as §1

[24] = compound: C[C@@H]1COCCN1C2=NC(=NC(=C2)C3(CC3)[S@](=N)(=O)C)C4=C5C=CNC5=NC=C4 [AZD6738]; conditions: max 10 µM
Procedure, shortened: as §1

[25] = compound: CC1=CN2[C@@H](C1)C=NC3=CC(=C(C=C3C2=O)OC)OCCCCCOC4=C(C=C5C(=C4)N=C[C@@H]6CC(=CN6C5=O)C)OC [SG3199]; conditions: max 0.001 µM
Procedure, shortened: as §1

[26] = compound: COc1cc(Nc2ncc3c(n2)-c2ccc(Cl)cc2C(c2c(F)cccc2OC)=NC3)ccc1C(=O)O [Alisertib]; conditions: max 10 µM
Procedure, shortened: as §1

[27] = compound: COc1cc([C@@H]2c3cc4c(cc3[C@@H](O[C@@H]3O[C@@H]5CO[C@@H](C)O[C@H]5[C@H](O)[C@H]3O)[C@H]3COC(=O)[C@H]23)OCO4)cc(OC)c1O [Etoposide]; conditions: max 10 µM
Procedure, shortened: as §1

[28] = compound: Cc1nc(-c2cn3c(n2)-c2ccc(-c4cnn(C(C)(C)C(N)=O)c4)cc2OCC3)n(C(C)C)n1 [Taselisib]; conditions: max 10 µM
Procedure, shortened: as §1

[29] = compound: Cc1cc2ncnn2cc1Nc1ncc2c(n1)n(C1CCOCC1)c(=O)n2C [AZD7648]; conditions: max 10 µM
Procedure, shortened: as §1

[30] = compound: CC(C)n1c(=O)n(C)c2cnc3cc(F)c(-c4ccc(OCCCN5CCCCC5)nc4)cc3c21 [AZD1390]; conditions: max 0.3 µM
Procedure, shortened: as §1

[31] = compound: C[C@@H](Oc1cc(-c2cnn(C3CCNCC3)c2)cnc1N)c1c(Cl)ccc(F)c1Cl [Crizotinib]; conditions: max 10 µM
Procedure, shortened: as §1

[32] = compound: CC(=O)O[C@H]1C(=O)[C@@]2(C)[C@H]([C@H](OC(=O)c3ccccc3)[C@]3(O)C[C@H](OC(=O)[C@H](O)[C@@H](NC(=O)c4ccccc4)c4ccccc4)C(C)=C1C3(C)C)[C@]1(OC(C)=O)CO[C@@H]1C[C@@H]2O [Paclitaxel]; conditions: max 3 µM
Procedure, shortened: as §1

[33] = compound: CC1(C)CCC(CN2CCN(c3ccc(C(=O)NS(=O)(=O)c4ccc(NCC5CCOCC5)c([N+](=O)[O-])c4)c(Oc4cnc5[nH]ccc5c4)c3)CC2)=C(c2ccc(Cl)cc2)C1 [Venetoclax]; conditions: max 1 µM
Procedure, shortened: as §1

[34] = compound: CN(C)CCCOc1ccc(-c2ccc3ncc4c(c3c2)n(C2CCOCC2)c(=O)n4C)cn1 [AZD0156]; conditions: max 3 µM
Procedure, shortened: as §1

[35] = compound: Cn1cnc2c(F)c(Nc3ccc(Br)cc3Cl)c(C(=O)NOCCO)cc21 [Selumetinib]; conditions: max 10 µM
Procedure, shortened: as §1

[36] = compound: C1CN(CCC1(C(=O)N[C@@H](CCO)C2=CC=C(C=C2)Cl)N)C3=NC=NC4=C3C=CN4 [Capivasertib]; conditions: max 10 µM
Procedure, shortened: as §1

Cell Line	IC50, cell viability 72 h ([1]; max 10 µM) [nM]	IC50, cell viability 72 h [2] [nM]	IC50, cell viability 72 h [3] [nM]	IC50, cell viability 72 h [4] [nM]	IC50, cell viability 72 h [5] [nM]	IC50, cell viability 72 h [6] [µM]	IC50, cell viability 72 h [7] [µM]	IC50, cell viability 72 h [8] [nM]	IC50, cell viability 72 h [9] [µM]	IC50, cell viability 72 h [10] [µM]	IC50, cell viability 72 h [11] [µM]	IC50, cell viability 72 h [12] [µM]	IC50, cell viability 72 h [13] [nM]	IC50, cell viability 72 h [14] [nM]	IC50, cell viability 72 h [15] [nM]	IC50, cell viability 72 h [16] [µM]	IC50, cell viability 72 h [17] [µM]	IC50, cell viability 72 h [18] [nM]	IC50, cell viability 72 h [19] [nM]	IC50, cell viability 72 h [20] [nM]	IC50, cell viability 72 h [21] [nM]	IC50, cell viability 72 h [22] [nM]	IC50, cell viability 72 h [23] [µM]	IC50, cell viability 72 h [24] [nM]	IC50, cell viability 72 h [25] [nM]	IC50, cell viability 72 h [26] [nM]	IC50, cell viability 72 h [27] [nM]	IC50, cell viability 72 h [28] [µM]	IC50, cell viability 72 h [29] [µM]	IC50, cell viability 72 h [30] [nM]	IC50, cell viability 72 h [31] [µM]	IC50, cell viability 72 h [32] [nM]	IC50, cell viability 72 h [33] [nM]	IC50, cell viability 72 h [34] [nM]	IC50, cell viability 72 h [35] [nM]	IC50, cell viability 72 h ([1]; max 3 µM) [nM]	IC50, cell viability 72 h [36] [µM]
ST486 (Burkitt's Lymphoma)	> 10000	320	> 1000	> 1000	31.9	> 10	> 10	7.33	0.968	> 10	> 10	> 10	80.9	134	220	> 20	> 10	773	15.9	4790	71	64.9	> 10	2000	> 1	40	1180	> 10	> 10	> 300	0.739	8.5	> 1000	> 3000	8880	–	–
OCI-AML3 (Acute Myeloid Leukemia)	> 10000	615	> 1000	2.98	324	> 10	5.34	–	5.32	> 10	> 10	> 10	10.1	> 1000	> 2000	3.07	> 10	–	5.04	156	250	25.6	> 10	1810	–	–	1270	1.44	> 10	> 300	6.53	4.57	> 1000	> 3000	91.9	–	–
H9 (T-Cell Non-Hodgkin's Lymphoma)	–	416	> 1000	2.71	26	9.54	> 10	7.26	–	> 10	7.12	–	6.62	142	> 2000	–	0.818	83.8	–	–	413	6.23	–	1310	> 1	115	–	> 10	> 10	> 300	2.36	–	> 1000	> 3000	53.6	> 3000	3.07
KY821 (Acute Myeloid Leukemia)	–	212	> 1000	5.35	> 1000	> 10	0.61	8.46	–	> 10	> 10	–	8.99	4.53	> 2000	–	> 10	272	–	–	13.2	22.1	–	3070	> 1	28.6	–	0.0907	> 10	> 300	4.63	–	9.8	> 3000	623	2700	> 10
RPMI-8226 (Plasma Cell Myeloma)	–	1600	> 1000	> 1000	> 1000	> 10	5.79	30.5	–	> 10	> 10	–	59.6	150	> 2000	–	–	599	–	–	88.2	114	–	2020	> 1	1410	–	> 10	> 10	> 300	> 10	–	> 1000	> 3000	> 10000	> 3000	> 10
JHH-4 (Hepatocellular Carcinoma)	–	> 3000	> 1000	118	> 1000	> 10	> 10	912	–	> 10	> 10	–	31	> 1000	173	–	–	> 1000	–	–	> 1000	> 1000	–	> 10000	> 1	6480	–	> 10	> 10	> 300	> 10	–	> 1000	> 3000	> 10000	> 3000	> 10
